Experimental data reported in paper PMC3119665, “A New Drug Design Targeting the Adenosinergic System for Huntington's Disease” (PLoS ONE, 2011).

Legend:
R6/2 mice = settings: cited from earlier work
[1] = target: Adenosine transporter (ENT1); settings: ENT1 inhibitor reference value; no reference given; cited from earlier work
A2AR = target: T1, A2AR (Rattus norvegicus, UniProt P30543); assay: cAMP assay in PC12 cells; type: cell-based; settings: PC12 cells, T1-11 10 µM, SCH 1 µM, 20 min
T1 construct: Treatment of PC12 cells with T1-11 dose-dependently elevated the cellular cAMP levels; endogenous in cells; host or cells: PC12
T1 sequence (P30543 whole entry): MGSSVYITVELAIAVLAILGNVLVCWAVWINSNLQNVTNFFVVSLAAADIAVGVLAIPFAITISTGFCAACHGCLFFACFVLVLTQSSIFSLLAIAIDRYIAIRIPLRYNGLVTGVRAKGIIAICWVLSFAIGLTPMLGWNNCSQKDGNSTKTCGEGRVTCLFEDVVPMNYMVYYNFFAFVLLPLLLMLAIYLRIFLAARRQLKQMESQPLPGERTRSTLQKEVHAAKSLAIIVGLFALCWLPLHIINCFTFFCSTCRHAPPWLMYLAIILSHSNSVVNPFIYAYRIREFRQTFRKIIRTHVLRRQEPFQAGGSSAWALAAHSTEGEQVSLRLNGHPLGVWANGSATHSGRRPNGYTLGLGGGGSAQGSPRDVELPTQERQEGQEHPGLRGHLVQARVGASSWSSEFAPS
Procedure: PC12 cells were plated at the density of 5×10^5 cells/well (on 12-well plates) and incubated with the indicated reagent(s) for the desired period of time. Cells were washed twice with ice-cold Locke's solution (150 mM NaCl, 5.6 mM KCl, 5 mM glucose, 1 mM MgCl2, and 10 mM HEPES, adjusted to pH 7.4). Cellular cAMP was extracted by adding 0.3 ml of 0.1 M HCl to each well and incubating this for 10 min on ice.

PC12 cells = assay: MTT metabolism assay, serum-deprived PC12 cells; type: cell-based, rat; settings: 24 h
Procedure: Survival was assessed by the 3-(4,5-dimethylthiazol-2-yl)-2,5-diphenyltetrazolium bromide (MTT) metabolism assay as described elsewhere, [65]. In brief, cells grown on 150-mm plates were washed three times with PBS and resuspended in DMEM. Suspended cells (1×10^4 cells) were plated on 96-well plates and treated with or without the indicated reagent. After incubation for 24 h, MTT (0.5 mg/ml) was added to the medium and incubated for 3 h. After discarding the medium, DMSO (100 µl) was then applied to the well to dissolve the formazan crystals derived from the mitochondrial cleavage of the tetrazolium ring by live cells. The absorbance at 570/630 nm in each well was measured on a micro-enzyme-linked immunosorbent assay reader.

## CCNC(=O)[C@H]1O[C@@H](n2cnc3c(N)nc(NCCc4ccc(CCC(=O)O)cc4)nc32)[C@H](O)[C@@H]1O [CGS]
R6/2 mice
  Effects on major HD symptoms (brain atrophy, striatal aggregates, deteriorated motor coordination): provides beneficial effects on several major HD symptoms

## O=[N+]([O-])c1ccc(CSc2ncnc3c2ncn3[C@@H]2O[C@H](CO)[C@@H](O)[C@H]2O)cc1 [NBTI, 6-[(4-nitrobenzyl)thio]-9-β-D-ribofuranosylpurine]
[1]
  Ki: 0.85 nM

## Nc1nc2c(cnn2CCc2ccccc2)c2nc(-c3ccco3)nn12 [SCH58216]
A2AR
  Effect on T1-11-induced elevation in the cAMP level: effectively blocked the T1-11-induced elevation in the cAMP level
PC12 cells
  Effect of A2AR antagonist on T1-11's prevention of serum deprivation-induced death: blocked the effect of T1-11
R6/2 mice; treatment for 1 week
  Motor coordination: worsened motor coordination

## Nc1nc(NCCc2ccc(O)cc2)nc2nc(-c3ccco3)nn12 [ZM241385]
PC12 cells
  Effect of A2AR antagonist on T1-11's prevention of serum deprivation-induced death: blocked the effect of T1-11
